Measurements reported in PubChem BioAssay (NCI).
Several values for one entry are separate records, joined by “and”; a condition that tells them apart may be missing. Equal values may be shown once.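 1) Cells in 96-well plates. 2) Compound, 48 h, 5 concentrations. 3) Linear interpolation between surrounding doses. 4) Unreached endpoint = highest concentration. At the GI50, growth is halved. Definition used: TGI = concentration required for complete inhibition of growth.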

Assays:
Assay in all cases: NCI-60 cell line screen, 48 h
A498 renal = test system: A498 renal
HCC-2998 colon = test system: HCC-2998 colon
HCT-116 colon = test system: HCT-116 colon
HOP-62 NSCLC = test system: HOP-62 NSCLC
IGROV1 ovarian = test system: IGROV1 ovarian
MCF7 breast = test system: MCF7 breast
NCI-H226 lung = test system: NCI-H226 lung
SF-268 CNS = test system: SF-268 CNS
MDA-MB-231 breast = test system: MDA-MB-231 breast
TK-10 renal = test system: TK-10 renal

| SMILES | TGI (A498 renal) | TGI (HCC-2998 colon) | TGI (HCT-116 colon) | TGI (HOP-62 NSCLC) | TGI (IGROV1 ovarian) | TGI (MCF7 breast) [µM] | TGI (NCI-H226 lung) [µM] | TGI (SF-268 CNS) | TGI (MDA-MB-231 breast) [µM] | TGI (TK-10 renal) | GI50 (HCC-2998 colon) | GI50 (TK-10 renal) |
| --- | --- | --- | --- | --- | --- | --- | --- | --- | --- | --- | --- | --- |
| CCOC(=O)c1c(-c2ccc(O)c(OC)c2)c(C#N)c(=S)n(C2OC(CO)C(O)C(O)C2O)c1-c1ccccc1 (stereo not drawn) | > 100 µM | > 100 µM | > 100 µM | > 100 µM | > 100 µM | > 100 | > 100 | > 100 µM |  |  |  |  |
| Cc1nn(-c2ccccc2)c2c1C(c1cc3ccccc3nc1Cl)NC(=O)N2 (stereo not drawn) | 62 µM |  | 84.6 µM | 54.4 µM | 24.9 µM | 73.9 | 60.1 | > 100 µM | 59.3 | > 100 µM |  |  |
| O=c1[nH][nH]c(=O)n1CCCCCCn1c(=O)[nH][nH]c1=O | > 100 µM | > 100 µM | > 100 µM |  |  | > 100 | > 100 | > 100 µM | > 100 | > 100 µM |  |  |
| Cc1ccc(S(=O)(=O)n2c3c(c4ccccc42)CCN2C[C@H]([C@H](C)Br)CC[C@@H]32)cc1 | > 100 µM | > 100 µM |  | > 100 µM | > 100 µM | > 100 | > 100 | > 100 µM | > 100 | > 100 µM |  |  |
| OC[C@H]1O[C@@H]2O[C@@](COCc3ccccc3)([C@H](OCc3ccccc3)[C@H]2O)[C@@H]1OCc1ccccc1 | 32.1 µM |  | 30.1 µM | 32.6 µM | 27 µM | 38.8 |  | 32.3 µM | 29.3 | 33.3 µM |  |  |
| CCOC(=O)N1CCC(N[C@@H]2c3cc4c(cc3C(c3cc(OC)c(O)c(OC)c3)C3C(=O)OC[C@@H]32)OCO4)CC1 (stereo partly drawn) | 1.89 µM and 2.08 µM | 6.82 µM and 7.22 µM | 22.3 µM and 11 µM | 2.63 µM and 2.65 µM | 13.6 µM and 9.21 µM |  |  | 30.8 µM and > 25 µM |  | 11.9 µM and 9.5 µM | 1.53 µM and 3.47 µM | 2.09 µM and 4.27 µM |
| O=C(O)CN1CCNCCN(CC(=O)O)CCN(CC(=O)O)CCNCC1 | > 100 µM |  | > 100 µM | > 100 µM | > 100 µM | > 100 | > 100 |  | > 100 | > 100 µM |  |  |
| C=CCc1cc(-c2nc(=S)[nH][nH]2)ccc1N=NNc1ccc(C(=O)O)cc1 | > 100 µM |  | > 100 µM | > 100 µM | > 100 µM | > 100 | > 100 | > 100 µM | > 100 | > 100 µM |  |  |
| COc1ccc(C(=O)/C=C/c2ccc(OCCCOc3ccc(/C=C/C(=O)c4ccc(OC)cc4)cc3)cc2)cc1 |  | > 100 µM | > 100 µM | > 100 µM | > 100 µM | > 100 | > 100 | > 100 µM | > 100 | > 100 µM |  |  |
| O=C(/C=C/c1ccccc1)Oc1ccc(C(=O)/C=C/c2ccccc2)cc1 |  | 15.3 µM | 14.6 µM | 21.6 µM | 17.9 µM | > 31.6 | > 100 | 18.3 µM | 23 | 20.8 µM |  |  |
| O=C1C=C/C(=N\N=C(c2ccccc2)c2ccccc2)O1 |  | > 10 µM |  | > 10 µM | > 10 µM | > 10 |  | > 10 µM | > 10 | > 10 µM |  |  |
| Cc1ccc(/C=N\NC2c3cc(Cl)ccc3Nc3nc(=O)[nH]c(C)c32)cc1 (stereo not drawn) |  | > 100 µM | > 100 µM | > 100 µM | > 100 µM |  | > 100 | > 100 µM |  | > 100 µM |  |  |
| CC1(C)OC[C@@H](O)[C@H](C#N)CO1 | > 100 µM | > 100 µM | > 100 µM | > 100 µM |  | > 100 | > 100 | > 100 µM | > 100 | > 100 µM |  |  |
| COc1ccc(-c2nc(SCC(=O)NNC(=S)Nc3ccccc3)[nH]c2-c2ccc(OC)cc2)cc1 | 47.9 µM | 29.3 µM | 78 µM | 46.1 µM | > 100 µM | 47.5 |  | 59.8 µM | 95.4 | > 100 µM |  |  |
| CNc1cc2c(c3ccccc13)C(CCl)CN2C(=O)c1cc2cc(OC)c(OC)c(OC)c2[nH]1 (stereo not drawn) | 0.00762 µM |  |  | 0.0319 µM | 0.128 µM | 0.131 | 0.067 |  |  |  |  |  |
| CSC1=N/C(=C\c2ccc(C)cc2)C(=O)N1CN1CCCCC1 | > 100 µM |  | > 100 µM | > 100 µM | > 100 µM | > 100 | > 100 | > 100 µM | > 100 | > 100 µM |  |  |
| CCOS(C)(=O)=O | > 100 µM | > 100 µM | > 100 µM |  | > 100 µM | > 100 | > 100 | > 100 µM | > 100 | > 100 µM |  |  |
| On1c(-c2ccccc2)c(-c2ccccc2N2CCCC2)c2ccccc21 | > 100 µM | > 100 µM | > 100 µM | > 100 µM | > 100 µM |  | > 100 | > 100 µM |  | > 100 µM |  |  |
| COc1cc(OC)c2c(=O)cc(-c3ccc(OC)c(OC)c3OC)oc2c1 |  | > 100 µM | > 100 µM | > 100 µM | > 100 µM |  | > 100 | > 100 µM |  | > 100 µM |  |  |
| O=C(O)CN1CCN2CCCCCN(CC1)CCN(CC(=O)O)CC2 | > 100 µM |  | > 100 µM | > 100 µM | > 100 µM | > 100 | > 100 |  | > 100 | > 100 µM |  |  |
| COC(C)(C)C1(O)CC[C@@H](C)CC1=O (stereo partly drawn) | > 100 µM | > 100 µM | > 100 µM | > 100 µM | > 100 µM | > 100 |  | > 100 µM |  | > 100 µM |  |  |
| NS(=O)(=O)c1ccc(NC(=S)/N=C/C2=C(O)c3ccccc3C2=O)cc1 | > 100 µM | > 100 µM | > 100 µM | > 100 µM | > 100 µM | > 100 |  | > 100 µM | > 100 | > 100 µM |  |  |
| CC(c1ccccc1)N1CCN(C(C)c2ccccc2)CC1 (stereo not drawn) | > 100 µM | 44.6 µM | > 100 µM | > 100 µM | > 100 µM |  | > 100 | > 100 µM | > 100 | > 100 µM |  |  |
| Cn1c(SCc2ccc(F)cc2)nnc1C12CC3CC(CC(C3)C1)C2 | 48.4 µM | > 100 µM | > 100 µM | > 100 µM | 78.2 µM |  | > 100 | > 100 µM | 94.5 |  |  |  |
